Assays:
Test in all cases: relative viability (nuclei count vs DMSO), 5 days (fraction); higher = more cells survive
[1] = compound: CC1=CN=C(N=C1C2=CNC(=C2)C(=O)N[C@H](CO)C3=CC(=CC=C3)Cl)NC4=C(C=C(C=C4)F)Cl [VX-11e] + O=C(CCCCCCC(=O)Nc1ccccc1)NO [Vorinostat] (partner 1 µM)
How it was run: (§1)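 Relative viability is defined as nuclei in treated wells over nuclei in vehicle wells. Duplicate plates were run and medians reported. Lung cancer cell lines in 1536-well plates were dosed by pin tool one day after seeding, with one drug or with a fixed anchor-drug dose plus five library-drug doses (not always all listed) in √10 steps, and nuclei were counted after 5 days.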

[2] = compound: CC1=CN=C(N=C1C2=CNC(=C2)C(=O)N[C@H](CO)C3=CC(=CC=C3)Cl)NC4=C(C=C(C=C4)F)Cl [VX-11e] + C[C@@H](Oc1cc(-c2cnn(C3CCNCC3)c2)cnc1N)c1c(Cl)ccc(F)c1Cl [Crizotinib] (partner 1 µM)
How it was run: as §1

[3] = compound: CC1=CN=C(N=C1C2=CNC(=C2)C(=O)N[C@H](CO)C3=CC(=CC=C3)Cl)NC4=C(C=C(C=C4)F)Cl [VX-11e] + Cc1cc(Nc2cc(N3CCN(C)CC3)nc(Sc3ccc(NC(=O)C4CC4)cc3)n2)n[nH]1 [Tozasertib] (partner 0.1 µM)
How it was run: as §1

[4] = compound: CC1=CN=C(N=C1C2=CNC(=C2)C(=O)N[C@H](CO)C3=CC(=CC=C3)Cl)NC4=C(C=C(C=C4)F)Cl [VX-11e] + CC1(C)CCC(c2ccc(Cl)cc2)=C(CN2CCN(c3ccc(C(=O)NS(=O)(=O)c4ccc(N[C@H](CCN5CCOCC5)CSc5ccccc5)c(S(=O)(=O)C(F)(F)F)c4)cc3)CC2)C1 [Navitoclax] (partner 0.5 µM)
How it was run: as §1

Row | Cell Line | relative viability ([1]; first compound 0.04 µM) | relative viability ([1]; first compound 0.1265 µM) | relative viability ([1]; first compound 0.4 µM) | relative viability ([1]; first compound 1.265 µM) | relative viability ([1]; first compound 4 µM) | relative viability ([2]; first compound 0.04 µM) | relative viability ([2]; first compound 0.1265 µM) | relative viability ([2]; first compound 0.4 µM) | relative viability ([2]; first compound 1.265 µM) | relative viability ([2]; first compound 4 µM) | relative viability ([3]; first compound 0.04 µM) | relative viability ([3]; first compound 0.1265 µM) | relative viability ([3]; first compound 0.4 µM) | relative viability ([3]; first compound 1.265 µM) | relative viability ([3]; first compound 4 µM) | relative viability ([4]; first compound 0.04 µM) | relative viability ([4]; first compound 0.1265 µM) | relative viability ([4]; first compound 0.4 µM) | relative viability ([4]; first compound 1.265 µM) | relative viability ([4]; first compound 4 µM)
1 | UMC-11 | 0.374 | 0.337 | 0.447 | 0.297 | 0.315 | 0.699 | 0.785 | 0.574 | 0.511 | 0.662 | 0.185 | 0.201 | 0.206 | 0.182 | 0.19 | 0.288 | 0.263 | 0.295 | 0.324 | 0.327
2 | HCC-15 | 0.96 | 0.752 |  | 0.534 | 0.26 | 0.904 | 0.747 | 0.64 | 0.449 | 0.264 | 0.428 | 0.35 | 0.306 | 0.153 | 0.172 | 0.711 | 0.649 | 0.53 | 0.317 | 0.196
3 | NCI-H1650 | 0.561 | 0.549 | 0.409 | 0.529 | 0.458 | 1.06 | 0.87 | 0.751 | 0.912 | 0.874 | 0.426 | 0.309 |  | 0.261 | 0.203 | 1.21 | 1.07 | 1.08 | 0.856 | 0.374
4 | NCI-H2347 | 0.514 | 0.688 | 0.5 | 0.349 | 0.316 | 0.677 | 0.831 | 0.605 | 0.517 | 0.406 | 0.646 | 0.599 | 0.508 | 0.449 | 0.276 | 0.932 | 0.818 | 0.683 | 0.352 | 0.213
5 | NCI-H647 | 0.501 | 0.655 | 0.637 | 0.496 | 0.339 | 1.1 | 0.916 | 1.01 | 0.608 | 0.523 | 0.254 | 0.301 | 0.246 | 0.205 | 0.0828 | 1.08 | 1.09 | 0.904 | 0.663 | 0.522
6 | NCI-H1944 | 0.492 | 0.506 | 0.441 | 0.478 | 0.408 | 1.17 | 1.02 | 0.942 | 0.905 | 0.583 | 0.224 | 0.227 |  | 0.231 | 0.171 | 0.947 | 1.03 | 0.951 | 0.944 | 0.504
7 | SK-MES-1 | 1.12 | 1.04 | 0.902 | 0.422 | 0.393 | 1.09 | 0.966 | 1.05 | 0.964 | 0.643 | 0.884 | 0.873 | 0.844 | 0.908 | 0.376 | 1.21 | 1.15 | 1.24 | 1.1 | 0.408
8 | NCI-H2085 | 0.826 | 0.707 | 0.689 | 0.449 | 0.584 | 0.88 | 0.817 | 0.746 | 0.714 | 0.619 | 0.897 | 0.724 | 0.659 | 0.644 | 0.413 | 1.17 | 1.02 | 1.1 | 0.919 | 0.719

— the supplement of paper PMC10307832
